Data reported in patent US20250197407A1 (Jazz Pharmaceuticals Ireland Limited, priority 2022, published 2025).

Biological target: SOS1/KRAS WT (Homo sapiens (Human), UniProt Q07889)
Test: SOS1/KRAS WT HTRF binding assay (FRET-based protein-protein interaction)
Conditions: inhibition of His6-SOS1 (aa564-1049, 40 nM) binding to GST-KRAS-WT (aa1-188, 40 nM); at least two independent replicates; read-out: SOS1/KRAS WT HTRF Binding assay pIC50 (converted)
Text: The capacity of compounds to inhibit SOS1 binding to KRAS-WT (wild-type) was quantified using a FRET-based protein-protein interaction assay. The assay is based on the transfer of energy between two fluorophores, a donor and an acceptor, when in close proximity. In this instance, the donor is a Europium-conjugated α-GST antibody that binds to GST-tagged KRAS-WT, and the acceptor is an XL665-conjugated α-His 6 antibody that binds to His 6-tagged SOS1. Binding of SOS1 to KRAS-WT results in an increased fluorescent signal at emission wavelength of 665 nm which can be detected on the EnVision plate reader. Compounds that inhibit binding will reduce the 665 nm signal emitted. Recombinant KRAS-WT protein (40 nM; Human KRAS, aa1-188 recombinant protein with N-terminal GST-tag) and SOS1 protein (40 nM; Human SOS1 exchange domain, aa564-1049 with N-terminal 6His-tag) were mixed together in assay buffer (5 mM HEPES pH7.3, 150 mM NaCl, 10 mM EDTA, 5 mM MgCl2, 0.05% BSA, 0.0025% NP-40, 1 mM DTT and 100 mM KF) and incubated at room temperature with a dose response of compound in a 384-well low volume white plate and a final volume of 5 ul. After a 60 minute incubation, 5 ul of 4 nM anti-GST-Eu(K) (Cisbio, France) combined with 20 nM anti-6His-XL665 (Cisbio, France), diluted in assay buffer, was added to the plate. Following a further 4 hr incubation at room temperature, time-resolved fluorescence was measured on the EnVision plate reader. DMSO (0.05%) and 10 μM reference compound were used to generate the Max and Min assay signals, respectively. Data was analysed using a four-parameter logistic model to calculate IC50 values, with at least two independent replicates performed for each compound.
Data was analyzed using a four-parameter logistic model to calculate IC50 values, with at least two independent replicates performed for each compound.

Sequence of SOS1/KRAS WT (Q07889 564-1049): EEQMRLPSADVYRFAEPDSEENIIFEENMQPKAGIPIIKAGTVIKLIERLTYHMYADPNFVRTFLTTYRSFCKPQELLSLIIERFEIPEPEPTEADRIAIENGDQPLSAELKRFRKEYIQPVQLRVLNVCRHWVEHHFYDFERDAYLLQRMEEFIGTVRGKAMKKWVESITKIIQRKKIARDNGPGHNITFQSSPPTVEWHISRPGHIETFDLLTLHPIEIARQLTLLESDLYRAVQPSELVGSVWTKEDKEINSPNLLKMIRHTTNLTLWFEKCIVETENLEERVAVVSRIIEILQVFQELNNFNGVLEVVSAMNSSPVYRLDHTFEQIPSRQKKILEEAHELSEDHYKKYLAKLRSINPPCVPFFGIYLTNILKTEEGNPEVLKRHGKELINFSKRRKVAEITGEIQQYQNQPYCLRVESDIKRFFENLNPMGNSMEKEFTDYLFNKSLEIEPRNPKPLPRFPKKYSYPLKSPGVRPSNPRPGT

Cc1nnc(N[C@H](C)c2cccc(C(F)(F)CN)c2F)c2cc3c(cc12)C(C)(C)C(=O)N3C [Compound 118, 1,3,3,5-tetramethyl-8-[[(1R)-1-[3-(2-amino-1,1-difluoro-ethyl)-2-fluoro-phenyl]ethyl]amino]pyrrolo[2,3-g]phthalazin-2-one] and Cc1nnc(N[C@H](C)c2cccc(C(F)(F)CO)c2F)c2cc3c(cc12)N(C)C(=O)C3(C)C [Compound 99, 1,3,3,8-tetramethyl-5-[[(1R)-1-[3-(1,1-difluoro-2-hydroxy-ethyl)-2-fluoro-phenyl]ethyl]amino]pyrrolo[3,2-g]phthalazin-2-one] are within 1.5-fold of each other in IC50: 11.5 nM for the first, 8.13 nM for the second.

COCCn1c(=O)n(C)c2cc3c(C)nnc(N[C@H](C)c4cccc(C(F)F)c4F)c3cc21 [Compound 28, 3-(2-methoxyethyl)-1,8-dimethyl-5-[[(1R)-1-[3-(difluoromethyl)-2-fluoro-phenyl]ethyl]amino]imidazo[4,5-g]phthalazin-2-one] and COCCn1c(=O)n(C)c2cc3c(C)nnc(N[C@H](C)c4cccc(C(F)(F)F)c4F)c3cc21 [Compound 35, 3-(2-methoxyethyl)-1,8-dimethyl-5-[[(1R)-1-[2-fluoro-3-(trifluoromethyl)phenyl]ethyl]amino] imidazo[4,5-g]phthalazin-2-one] are within 1.5-fold of each other in IC50: 12.3 nM for the first, 10.7 nM for the second.

Cc1nnc(N[C@H](C)c2cccc(C(F)(F)CO)c2F)c2cc3c(cc12)C1(CCOCC1)C(=O)N3C [Compound 89, 1,5-dimethyl-8-[[(1R)-1-[3-(1,1-difluoro-2-hydroxy-ethyl)-2-fluoro-phenyl]ethyl]amino]spiro[pyrrolo [2,3-g]phthalazine-3,4′-tetrahydropyran]-2-one] and COC1(C)C(=O)N(C)c2cc3c(N[C@H](C)c4cccc(C(F)(F)CO)c4F)nnc(C)c3cc21 (stereo partly drawn) [Compound 93, 3-methoxy-1,3,5-trimethyl-8-[[(1R)-1-[3-(1,1-difluoro-2-hydroxy-ethyl)-2-fluoro-phenyl]ethyl]amino]pyrrolo[2,3-g]phthalazin-2-one] are within 1.5-fold of each other in IC50: 8.13 nM for the first, 7.41 nM for the second.

Compared with COC1(C)C(=O)N(C2CC2)c2cc3c(N[C@H](C)c4cccc(C(F)(F)C(C)(C)O)c4C)nnc(C)c3cc21 (stereo partly drawn) [Compound 140, 1-cyclopropyl-3-methoxy-3,5-dimethyl-8-[[(1R)-1-[3-(1,1-difluoro-2-hydroxy-2-methyl-propyl)-2-methyl-phenyl]ethyl]amino]pyrrolo[2,3-g]phthalazin-2-one], COC1(C)C(=O)N(C)c2cc3c(N[C@H](C)c4cccc(C(F)(F)C(C)(C)O)c4F)nnc(C)c3cc21 (stereo partly drawn) [Compound 75, 3-methoxy-1,3,5-trimethyl-8-[[(1R)-1-[3-(1,1-difluoro-2-hydroxy-2-methyl-propyl)-2-fluoro-phenyl]ethyl]amino]pyrrolo[2,3-g]phthalazin-2-one] is 1.8-fold lower in IC50: 15.5 nM for the first, 8.71 nM for the second.

Going from CCC1(OC)C(=O)N(C)c2cc3c(N[C@H](C)c4cccc(C(F)(F)CO)c4C)nnc(C)c3cc21 (stereo partly drawn) [Compound 203, 3-ethyl-3-methoxy-1,5-dimethyl-8-[[(1R)-1-[3-(1,1-difluoro-2-hydroxy-ethyl)-2-methyl-phenyl]ethyl]amino]pyrrolo[2,3-g]phthalazin-2-one] to CCC1(OC)C(=O)N(C)c2cc3c(C)nnc(N[C@H](C)c4cccc(C(F)(F)C(C)(C)O)c4C)c3cc21 (stereo partly drawn) [Compound 191, 5-[[(1R)-1-[3-(1,1-difluoro-2-hydroxy-2-methyl-propyl)-2-methyl-phenyl]ethyl]amino]-3-ethyl-3-methoxy-1,8-dimethyl-pyrrolo[2,3-g]phthalazin-2-one], the IC50 rises from 11.7 nM to 23.4 nM (2-fold).

Cc1nnc(N[C@H](C)c2cccc(C(F)(F)F)c2F)c2cc3c(cc12)n(C)c(=O)n3C1CC1 [Compound 52, 3-cyclopropyl-1,8-dimethyl-5-[[(1R)-1-[2-fluoro-3-(trifluoromethyl)phenyl]ethyl]amino] imidazo[4,5-g]phthalazin-2-one] and Cc1c(C(F)F)cccc1[C@@H](C)Nc1nnc(C)c2cc3c(cc12)n(C1CC1)c(=O)n3C [Compound 213, 3-cyclopropyl-5-[[(1R)-1-[3-(difluoromethyl)-2-methyl-phenyl]ethyl]amino]-1,8-dimethyl-imidazo[4,5-g]phthalazin-2-one] are within 1.5-fold of each other in IC50: 8.13 nM for the first, 11 nM for the second.

COCCn1c(=O)n(C)c2cc3c(C)nnc(N[C@H](C)c4cccc(C(F)(F)CO)c4F)c3cc21 [Compound 37, 3-(2-methoxyethyl)-1,8-dimethyl-5-[[(1R)-1-[3-(1,1-difluoro-2-hydroxy-ethyl)-2-fluoro-phenyl]ethyl]amino]imidazo[4,5-g]phthalazin-2-one] and Cc1c([C@@H](C)Nc2nnc(C)c3cc4c(cc23)n(C)c(=O)n4C)cccc1C(F)(F)CO [Compound 10, 5-[[(1R)-1-[3-(1,1-difluoro-2-hydroxy-ethyl)-2-methyl-phenyl]ethyl]amino]-1,3,8-trimethyl-imidazo[4,5-g]phthalazin-2-one] are within 1.5-fold of each other in IC50: 10.5 nM for the first, 9.12 nM for the second.

Compared with Cc1nnc(N[C@H](C)c2cccc(C(F)(F)CO)c2F)c2cc3c(cc12)C(C)(C)C(=O)N3C(C)C [Compound 110, 1-isopropyl-3,3,5-trimethyl-8-[[(1R)-1-[3-(1,1-difluoro-2-hydroxy-ethyl)-2-fluoro-phenyl]ethyl]amino]pyrrolo[2,3-g]phthalazin-2-one], Cc1nnc(N[C@H](C)c2cccc(C(F)(F)C(C)(C)O)c2F)c2cc3c(cc12)C(C)(C)C(=O)N3C [Compound 46, 1,3,3,5-tetramethyl-8-[[(1R)-1-[3-(1,1-difluoro-2-hydroxy-2-methyl-propyl)-2-fluoro-phenyl]ethyl]amino]pyrrolo[2,3-g]phthalazin-2-one] is 1.6-fold higher in IC50: 7.08 nM for the first, 11 nM for the second.

First: Cc1nnc(N[C@H](C)c2cccc(C(F)(F)F)c2)c2cc3c(cc12)n(C)c(=O)n3C1CCCC1 [Compound 2, 3-cyclopentyl-1,8-dimethyl-5-[[(1R)-1-[3-(trifluoromethyl)phenyl]ethyl]amino] imidazo[4,5-g]phthalazin-2-one]
Second: Cc1nnc(N[C@H](C)c2cccc(C(F)(F)C(C)(C)O)c2)c2cc3c(cc12)n(C)c(=O)n3C(C)C [Compound 87, 3-isopropyl-1,8-dimethyl-5-[[(1R)-1-[3-(1,1-difluoro-2-hydroxy-2-methyl-propyl)phenyl]ethyl]amino]imidazo [4,5-g]phthalazin-2-one]
The IC50 of the first is 1.6-fold higher: 13.2 nM for the first, 8.51 nM for the second.

Cc1c([C@@H](C)Nc2nnc(C)c3cc4c(cc23)n(C2(C)CC2)c(=O)n4C)cccc1C(F)(F)CO [Compound 76, 1,8-dimethyl-3-(1-methylcyclopropyl)-5-[[(1R)-1-[3-(1,1-difluoro-2-hydroxy-ethyl)-2-methyl-phenyl]ethyl]amino]imidazo[4,5-g]phthalazin-2-one] and Cc1c([C@@H](C)Nc2nnc(C)c3cc4c(cc23)n(C)c(=O)n4C)cccc1C(F)(F)F [Compound 54, 1,3,8-trimethyl-5-[[(1R)-1-[2-methyl-3-(trifluoromethyl)phenyl]ethyl]amino] imidazo[4,5-g]phthalazin-2-one] are within 1.5-fold of each other in IC50: 6.03 nM for the first, 6.17 nM for the second.

Going from Cc1c(C#N)cccc1[C@@H](C)Nc1nnc(C)c2cc3c(cc12)n(C(C)(C)C)c(=O)n3C [Compound 49, 2-methyl-3-[(1R)-1-[(3-tert-butyl-1,8-dimethyl-2-oxo-imidazo[4,5-g]phthalazin-5-yl)amino]ethyl]benzonitrile] to Cc1nnc(N[C@H](C)c2cccc(C(F)(F)CN)c2F)c2cc3c(cc12)n(C)c(=O)n3C(C)(C)C [Compound 53, 3-tert-butyl-1,8-dimethyl-5-[[(1R)-1-[3-(2-amino-1,1-difluoro-ethyl)-2-fluoro-phenyl]ethyl]amino]imidazo[4,5-g]phthalazin-2-one], the IC50 falls from 11.2 nM to 5.01 nM (2.2-fold).

First: Cc1nnc(N[C@H](C)c2cccc(C(F)F)c2F)c2cc3c(cc12)n(C)c(=O)n3C(C)C [Compound 43, 3-isopropyl-1,8-dimethyl-5-[[(1R)-1-[3-(difluoromethyl)-2-fluoro-phenyl]ethyl]amino]imidazo[4,5-g]phthalazin-2-one]
Second: CCOC1(C)C(=O)N(C)c2cc3c(N[C@H](C)c4cccc(C(F)(F)C(C)(C)O)c4C)nnc(C)c3cc21 (stereo partly drawn) [Compound 126, 3-ethoxy-1,3,5-trimethyl-8-[[(1R)-1-[3-(1,1-difluoro-2-hydroxy-2-methyl-propyl)-2-methyl-phenyl]ethyl]amino]pyrrolo[2,3-g]phthalazin-2-one]
The IC50 of the first is 3.2-fold lower: 2.82 nM for the first, 9.12 nM for the second.

With Cc1nnc(N[C@H](C)c2cc(F)cc(C(F)(F)CO)c2)c2cc3c(cc12)C(C)(C)C(=O)N3C [Compound 107, 1,3,3,5-tetramethyl-8-[[(1R)-1-[3-(1,1-difluoro-2-hydroxy-ethyl)-5-fluoro-phenyl]ethyl]amino]pyrrolo[2,3-g]phthalazin-2-one] the IC50 was 18.6 nM.
